Assay results published in patent US10669242B2 (priority 2016, dated 2020).
Counter-ions that a name gives are not always drawn.

Biological target: T1, recombinant glucosyltransferase domain of C. difficile Toxin B/TcdB (Clostridioides difficile, UniProt P18177)
T1 construct: 6-His (C); purchased R&D Systems 6246-GT
Experiment: biochemical

T1 sequence (P18177 1-543): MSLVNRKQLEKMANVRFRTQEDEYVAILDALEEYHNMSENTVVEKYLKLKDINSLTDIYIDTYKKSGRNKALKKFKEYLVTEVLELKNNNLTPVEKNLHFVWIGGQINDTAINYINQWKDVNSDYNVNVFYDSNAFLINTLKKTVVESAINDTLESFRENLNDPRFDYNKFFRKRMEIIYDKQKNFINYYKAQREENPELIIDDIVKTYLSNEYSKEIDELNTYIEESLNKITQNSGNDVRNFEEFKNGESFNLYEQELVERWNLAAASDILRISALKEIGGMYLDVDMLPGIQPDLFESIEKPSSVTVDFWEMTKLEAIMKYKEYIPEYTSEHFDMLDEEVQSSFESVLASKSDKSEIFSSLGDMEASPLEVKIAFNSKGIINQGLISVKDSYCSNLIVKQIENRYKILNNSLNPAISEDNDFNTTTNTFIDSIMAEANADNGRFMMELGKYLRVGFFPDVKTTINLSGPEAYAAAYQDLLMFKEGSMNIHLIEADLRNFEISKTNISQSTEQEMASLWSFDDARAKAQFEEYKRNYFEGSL

| Compound | IC50 [nM] |
| --- | --- |
| Cc1cc(CN2C(=O)c3ccc(Cl)cc3NC(=O)[C@H]2Cc2ccccn2)cc(C)c1NC(=O)c1ccccn1 [Example 26k] | 100 to 999 |
| O=C(Nc1ccccn1)c1ccc(CN2C(=O)c3ccc(Cl)cc3NC(=O)[C@H]2Cc2ccccc2Cl)cc1 [Example 4w, (R)-4-((8-chloro-3-(2-chlorobenzyl)-2,5-dioxo-2,3-dihydro-1H-benzo[e][1,4]diazepin-4(5H)-yl)methyl)-N-(pyridin-2-yl)benzamide] | < 100 |
| Cn1ccnc1C(=O)c1ccc(CN2C(=O)c3ccc(Cl)cc3NC(=O)[C@H]2Cc2ccccn2)cc1 [Example 31c] | 100 to 999 |
| O=C(NO)c1ccc(CN2C(=O)c3ccc(Cl)cc3NC(=O)[C@H]2Cc2ccccn2)cc1 [Example 40a, (R)-4-((8-Chloro-2,5-dioxo-3-(pyridin-2-ylmethyl)-2,3-dihydro-1H-benzo[e][1,4]diazepin-4(5H)-yl)methyl)-N-hydroxybenzamide] | < 100 |
| Cc1cnc(NC(=O)c2ccc(CN3C(=O)c4ccc(Cl)cc4NC(=O)[C@H]3Cc3ccccn3)cc2)cn1 [Example 5t, (R)-4-((8-chloro-2,5-dioxo-3-(pyridin-2-ylmethyl)-2,3-dihydro-1H-benzo[e][1,4]diazepin-4(5H)-yl)methyl)-N-(5-methylpyrazin-2-yl)benzamide] | < 100 |
| CS(=O)(=O)c1ccc(NC(=O)c2ccc(CN3C(=O)c4ccc(Cl)cc4NC(=O)[C@H]3Cc3ccccn3)cc2Cl)nc1 [Example 5av, (R)-2-chloro-4-((8-chloro-2,5-dioxo-3-(pyridin-2-ylmethyl)-2,3-dihydro-1H-benzo[e][1,4]diazepin-4(5H)-yl)methyl)-N-(5-(methylsulfonyl)pyridin-2-yl)benzamide] | < 100 |
| O=C(Nc1ccc(CN2C(=O)c3ccc(Cl)cc3NC(=O)[C@H]2Cc2ccccn2)cc1)c1cscn1 [Example 27f] | < 100 |
| O=C1Nc2cc(Cl)ccc2C(=O)N(CC2CCN(C(=O)Nc3ccccn3)CC2)[C@@H]1Cc1ccccn1 [Example 42a, (R)-4-((8-Chloro-2,5-dioxo-3-(pyridin-2-ylmethyl)-2,3-dihydro-1H-benzo[e][1,4]diazepin-4(5H)-yl)methyl)-N-(pyridin-2-yl)piperidine-1-carboxamide] | 1000 to 10000 |
| Cc1cccnc1C(=O)Nc1ccc(CN2C(=O)c3ccc(Cl)cc3NC(=O)[C@H]2Cc2ccccn2)cc1 [Example 26e] | 1000 to 10000 |
| O=C(O)c1ccc(CN2C(=O)c3ccc(Cl)cc3NC(=O)[C@@H]2Cc2ccccn2)cc1 [Example 1f] | 100 to 999 |
| O=C(CS)Nc1ccc(CN2C(=O)c3ccc(Cl)cc3NC(=O)[C@H]2Cc2ccccn2)cc1 [Example 29a, (R)—N-(4-((8-Chloro-2,5-dioxo-3-(pyridin-2-ylmethyl)-2,3-dihydro-1H-benzo[e][1,4]diazepin-4(5H)-yl)methyl)phenyl)-2-mercaptoacetamide] | 1000 to 10000 |
| O=C(Nc1ncccn1)c1ccc(CN2C(=O)c3ccc(Cl)cc3NC(=O)[C@H]2Cc2cccnc2)cc1 [Example 5b, (R)-4-((8-chloro-2,5-dioxo-3-(pyridin-3-ylmethyl)-2,3-dihydro-1H-benzo[e][1,4]diazepin-4(5H)-yl)methyl)-N-(pyrimidin-2-yl)benzamide] | < 100 |
| O=C(Nc1ccc(N2CCNCC2)cn1)c1ccc(CN2C(=O)c3ccc(Cl)cc3NC(=O)[C@H]2Cc2ccccn2)cc1 [Example 48a, (R)-4-((8-Chloro-2,5-dioxo-3-(pyridin-2-ylmethyl)-2,3-dihydro-1H-benzo[e][1,4]diazepin-4(5H)-yl)methyl)-N-(5-(piperazin-1-yl)pyridin-2-yl)benzamide hydrochloride] | < 100 |
| CC(C)(C)OC(=O)N1CCN(c2ccc(NC(=O)c3ccc(CN4C(=O)c5ccc(Cl)cc5NC(=O)[C@H]4Cc4ccccn4)cc3)nc2)CC1 [Example 4aw, (R)-tert-butyl 4-(6-(4-((8-chloro-2,5-dioxo-3-(pyridin-2-ylmethyl)-2,3-dihydro-1H-benzo[e][1,4]diazepin-4(5H)-yl)methyl)benzamido)pyridin-3-yl)piperazine-1-carboxylate] | 100 to 999 |
| Cc1nsc(NC(=O)c2ccc(CN3C(=O)c4ccc(Cl)cc4NC(=O)[C@H]3Cc3ccccn3)cc2)n1 [Example 4bk, (R)-4-((8-chloro-2,5-dioxo-3-(pyridin-2-ylmethyl)-2,3-dihydro-1H-benzo[e][1,4]diazepin-4(5H)-yl)methyl)-N-(3-methyl-1,2,4-thiadiazol-5-yl)benzamide] | 10000 to 35000 |
| O=C(O)c1ccc(CN2C(=O)c3ccc(Cl)cc3NC(=O)[C@H]2Cc2ccccn2)cc1-c1ccncc1 [Example 8a, (R)-4-((8-Chloro-2,5-dioxo-3-(pyridin-2-ylmethyl)-2,3-dihydro-1H-benzo[e][1,4]diazepin-4(5H)-yl)methyl)-2-(pyridin-4-yl)benzoic Acid] | 100 to 999 |
| O=C(O)c1ccc(CN2C(=O)c3ccc(Cl)cc3NC(=O)[C@H]2Cc2ccccn2)cc1NC(=O)C1CCOCC1 [Example 22m] | 100 to 999 |
| N#Cc1cccc(C[C@@H]2C(=O)Nc3cc(Cl)ccc3C(=O)N2Cc2ccc(C(=O)Nc3ccccn3)cc2)c1 [Example 4ak, (R)-4-((8-chloro-3-(3-cyanobenzyl)-2,5-dioxo-2,3-dihydro-1H-benzo[e][1,4]diazepin-4(5H)-yl)methyl)-N-(pyridin-2-yl)benzamide] | < 100 |
| Cc1ccc(NC(=O)c2ccc(CN3C(=O)c4ccc(NC(=O)c5ccccn5)cc4NC(=O)[C@H]3C)cc2)nc1 [Example 18d, (R)-N-(3-methyl-4-(4-((5-methylpyridin-2-yl)carbamoyl)benzyl)-2,5-dioxo-2,3,4,5-tetrahydro-1H-benzo[e][1,4]diazepin-8-yl)picolinamide] | 10000 to 35000 |
| Cc1ccc(NC(=O)c2ccc(CN3C(=O)c4ccc(Cl)cc4NC(=O)[C@H]3CCN3CCNC(=O)C3)cc2)nc1 [Example 10e] | 1000 to 10000 |
| COCCC(=O)Nc1cc(CN2C(=O)c3ccc(Cl)cc3NC(=O)[C@H]2Cc2ccccn2)ccc1C(=O)O [Example 22e] | 1000 to 10000 |
| CS(=O)(=O)Nc1ccc(CN2C(=O)c3ccc(Cl)cc3NC(=O)[C@H]2Cc2ccccn2)cc1 [Example 30a, (R)—N-(4-((8-Chloro-2,5-dioxo-3-(pyridin-2-ylmethyl)-2,3-dihydro-1H-benzo[e][1,4]diazepin-4(5H)-yl)methyl)phenyl)methanesulfonamide] | 10000 to 35000 |
| CCc1ccc(NC(=O)c2ccc(CN3C(=O)c4ccc(Cl)cc4NC(=O)[C@H]3C)cc2)nc1 [Example 4ay, (R)-4-((8-chloro-3-methyl-2,5-dioxo-2,3-dihydro-1H-benzo[e][1,4]diazepin-4(5H)-yl)methyl)-N-(5-ethylpyridin-2-yl)benzamide] | 100 to 999 |
| O=C(O)c1ccc(CN2C(=O)c3ccc(Cl)cc3NC(=O)[C@H]2CCc2ccccc2)cc1 [Example 3c] | 10000 to 35000 |
| Cc1ccc(NC(=O)c2ccc(CN3C(=O)c4ccc(Cl)cc4NC(=O)[C@@H]3Cc3cscn3)cc2)nc1 [Example 35a, (S)-4-((8-Chloro-2,5-dioxo-3-(thiazol-4-ylmethyl)-2,3-dihydro-1H-benzo[e][1,4]diazepin-4(5H)-yl)methyl)-N-(5-methylpyridin-2-yl)benzamide] | 100 to 999 |
| Cc1ccc(NC(=O)c2ccc(CN3C(=O)c4ccc(Cl)cc4NC(=O)[C@H]3Cc3ccccn3)cc2)nc1 [Example 4x, (R)-4-((8-chloro-2,5-dioxo-3-(pyridin-2-ylmethyl)-2,3-dihydro-1H-benzo[e][1,4]diazepin-4(5H)-yl)methyl)-N-(5-methylpyridin-2-yl)benzamide] | < 100 |
